Experimental data taken from patent US20180305332A1, “Bispiperidinyl Derivatives as Liver X Receptor Beta Agonists, Compositions, and Their Use” (Merck Sharp & Dohme Corp., priority 2015, published 2018).

Tests used:
[1] = target: T1, GST tagged LXRbeta LBD (ligand binding domain) (Homo sapiens, UniProt P55055); assay: LanthaScreen TR-FRET Liver X Receptor Coactivator Assay, LXR beta-LBD; assay type: biochemical; settings: relative to reference T0901317; for EC50: Inflection Point (potency), co-activator recruitment, read-out: LXR beta IP; for Emax / LXR beta act @ max dose (%): activity at max dose (efficacy); for Emax: read-out: LXR beta act @ max dose (%)
T1 construct: purchased Invitrogen pv4658.pps
T1 sequence (P55055 222-460 limits assumed): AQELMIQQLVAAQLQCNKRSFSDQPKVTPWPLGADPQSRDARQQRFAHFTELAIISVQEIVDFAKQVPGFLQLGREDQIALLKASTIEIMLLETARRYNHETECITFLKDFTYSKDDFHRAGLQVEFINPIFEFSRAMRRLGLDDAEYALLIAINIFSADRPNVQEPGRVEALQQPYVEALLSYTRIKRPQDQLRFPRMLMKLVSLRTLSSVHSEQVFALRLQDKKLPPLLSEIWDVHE
Experimental: (§1) Potency (Inflection Point, IP) and efficacy (Emax) are evaluated via compound-induced co-activator recruitment to glutathione-S-transferase (GST) tagged LXRbeta and LXRalpha LBD (ligand binding domain) proteins in relation to reference dual agonist compound T0901317 (N-(2,2,2-Trifluoroethyl)-N-[4-[2,2,2-trifluoro-1-hydroxy-1-(trifluoromethyl)ethyl] phenyl]benzenesulfonamide) using the LanthaScreen™ TR-FRET Liver X Receptor Coactivator Assays according to manufacturer's instructions (Invitrogen catalog number pv4658.pps and pv4655). While running the LanthaScreen™ TR-FRET Liver X Receptor Coactivator Assay, LXR alpha-LBD or LXR beta-LBD was added to ligand test compounds followed by addition of a mixture of a fluorescein-labelled coactivator peptide and terbium-conjugated anti-GST antibody. After an incubation period at room temperature, TR-FRET (time-resolved fluorescence resonance energy transfer) was measured using a filter-based instrument capable of TR-FRET, e.g. PerkinElmer Envision.

[2] = target: T2, GST tagged LXRalpha LBD (ligand binding domain) (Homo sapiens, UniProt Q13133); assay: LanthaScreen TR-FRET Liver X Receptor Coactivator Assay, LXR alpha-LBD; assay type: biochemical; settings: relative to reference T0901317; for EC50 / LXR alpha IP (nM): Inflection Point (potency), co-activator recruitment; for EC50: read-out: LXR alpha IP; for Emax: read-out: LXR alpha act @ max dose (%)
T2 construct: purchased Invitrogen pv4655
T2 sequence (Q13133 209-447 limits assumed): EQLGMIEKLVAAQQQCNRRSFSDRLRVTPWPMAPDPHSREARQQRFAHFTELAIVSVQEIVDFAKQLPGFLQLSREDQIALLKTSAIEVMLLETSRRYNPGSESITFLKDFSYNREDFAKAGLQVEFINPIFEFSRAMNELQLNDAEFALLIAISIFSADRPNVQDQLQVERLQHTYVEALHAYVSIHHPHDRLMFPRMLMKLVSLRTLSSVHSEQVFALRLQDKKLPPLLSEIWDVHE
Experimental: as §1

[3] = activity at max dose (efficacy)

SMILES | EC50 [1] | Emax [1] | EC50 [2] | Emax [2, 3] | LXR alpha IP (nM) [2] | LXR beta act @ max dose (%) [1] | LXR alpha act @ max dose (%) [2, 3]
CN(C)C(=O)c1ccc(N2CCC(C3CCN(C(=O)C4(c5cccc(F)c5)CCC4)CC3)CC2)cc1Cl [Example A-17, 2-chloro-4-(1′-{[1-(3-fluorophenyl)cyclobutyl]carbonyl}-4,4′-bipiperidin-1-yl)-N,N-dimethylbenzamide] | 204 nM | 100% | 2260 nM | 14% |  |  | 
COc1ccc(C2(C(=O)N3CCC(C4CCN(c5ccc(C(=O)N(C)C)c(Cl)c5)CC4)CC3)CCCC2)cc1 [Example A-46, 2-chloro-4-(1′-{[1-(4-methoxyphenyl)cyclopentyl]carbonyl}-4,4′-bipiperidin-1-yl)-N,N-dimethylbenzamide] | 187 nM | 34% |  | 0% | NO IP |  | 
CN(C)C(=O)c1ccc(N2CCC(C3CCN(C(=O)C(c4ccccc4)C(F)(F)F)CC3)CC2)cc1Cl (centres unmarked) [Example A-98, 2-chloro-N,N-dimethyl-4-[1′-(3,3,3-trifluoro-2-phenylpropanoyl)-4,4′-bipiperidin-1-yl]benzamide] | 324 nM | 92% | 4960 nM | 33% |  |  | 
CC(C)CC(O)(C(=O)N1CCC(C2CCN(c3ccc(C(=O)N(C)C)c(Cl)c3)CC2)CC1)C(F)(F)F (centres unmarked) [Example A-5, 2-chloro-4-{1′-[2-hydroxy-4-methyl-2-(trifluoromethyl)pentanoyl]-4,4′-bipiperidin-1-yl}-N,N-dimethylbenzamide] | 51 nM |  | 869 nM | 55% |  | 113% | 
CN(C)C(=O)c1ccc(N2CCC(C3CCN(C(=O)C(C)(C)c4ccccc4)CC3)CC2)cc1Cl [Example A-12, 2-chloro-N,N-dimethyl-4-[1′-(2-methyl-2-phenylpropanoyl)-4,4′-bipiperidin-1-yl]benzamide] | 14 nM | 114% | 2460 nM | 47% |  |  | 
CCCC(O)(C(=O)N1CCC(C2CCN(c3ccc(C(=O)N(C)C)c(Cl)c3)CC2)CC1)C(F)(F)F (centres unmarked) [Example A-84, 2-chloro-4-{1′-[2-hydroxy-2-(trifluoromethyl)pentanoyl]-4,4′-bipiperidin-1-yl}-N,N-dimethylbenzamide] | 173 nM |  | 1370 nM |  |  | 116% | 63%
CN(C)C(=O)c1ccc(N2CCC(C3CCN(S(=O)(=O)c4ccccc4C(F)(F)F)CC3)CC2)cc1Cl [Example A-101, 2-chloro-N,N-dimethyl-4-(1′-{[2-(trifluoromethyl)phenyl]sulfonyl}-4,4′-bipiperidin-1-yl)benzamide] | 8 nM | 138% | 618 nM | 65% |  |  | 
CN(C)C(=O)c1ccc(N2CCC(C3CCN(C(=O)C(C)(c4ccccc4)C(F)(F)F)CC3)CC2)cc1Cl (centres unmarked) [Example A-16, 2-chloro-N,N-dimethyl-4-[1′-(3,3,3-trifluoro-2-methyl-2-phenylpropanoyl)-4,4′-bipiperidin-1-yl]benzamide] | 14 nM | 109% | 861 nM | 33% |  |  | 
Cc1ccc(C(C)(C)C(=O)N2CCC(C3CCN(c4ccc(C(=O)N(C)C)c(Cl)c4)CC3)CC2)cc1 [Example A-92, 2-chloro-N,N-dimethyl-4-{1′-[2-methyl-2-(4-methylphenyl)propanoyl]-4,4′-bipiperidin-1-yl}benzamide] | 193 nM | 99% | 2840 nM | 31% |  |  | 

The remaining lines, values ahead:

EC50 [1] | Emax [1] | EC50 [2] | Emax [2, 3] | LXR alpha IP (nM) [2] | LXR beta act @ max dose (%) [1] | LXR alpha act @ max dose (%) [2, 3] | SMILES
184 nM | 77% | 1380 nM | 30% |  |  |  | CN(Cc1nccs1)C(=O)c1ccc(N2CCC(C3CCN(C(=O)[C@](O)(c4ccccc4)C(F)(F)F)CC3)CC2)cc1Cl [Example E-49, 2-chloro-N-methyl-N-(1,3-thiazol-2-ylmethyl)-4-{1′-[(2R)-3,3,3-trifluoro-2-hydroxy-2-phenylpropanoyl]-4,4′-bipiperidin-1-yl}benzamide]
66 nM | 106% | 1110 nM | 41% |  |  |  | Cc1nc(CCN(C)C(=O)c2ccc(N3CCC(C4CCN(C(=O)[C@](O)(c5ccccc5)C(F)(F)F)CC4)CC3)cc2Cl)no1 [Example E-55, 2-chloro-N-methyl-N-[2-(5-methyl-1,2,4-oxadiazol-3-yl)ethyl]-4-{1′-[(2R)-3,3,3-trifluoro-2-hydroxy-2-phenylpropanoyl]-4,4′-bipiperidin-1-yl}benzamide]
206 nM | 78% | 1420 nM | 28% |  |  |  | CN(Cc1ccon1)C(=O)c1ccc(N2CCC(C3CCN(C(=O)[C@](O)(c4ccccc4)C(F)(F)F)CC3)CC2)cc1Cl [Example E-52, 2-chloro-N-(isoxazol-3-ylmethyl)-N-methyl-4-{1′-[(2R)-3,3,3-trifluoro-2-hydroxy-2-phenylpropanoyl]-4,4′-bipiperidin-1-yl}benzamide]
276 nM | 57% |  | 0% | NO IP |  |  | CC1CCCN(C(=O)c2ccc(N3CCC(C4CCN(C(=O)[C@](O)(c5ccccc5)C(F)(F)F)CC4)CC3)cc2Cl)C1 (stereo partly drawn) [Example E-38, (2R)-3-(1′-{3-chloro-4-[(3-methylpiperidin-1-yl)carbonyl]phenyl}-4,4′-bipiperidin-1-yl)-1,1,1-trifluoro-3-oxo-2-phenylpropan-2-ol]
418 nM | 86% | 1520 nM | 28% |  |  |  | CC(C)S(=O)(=O)c1ccc(N2CCC(C3CCN(C(=O)[C@](O)(c4ccccc4)C(F)(F)F)CC3)CC2)cc1Cl [Example D-5, (2R)-3-(1′-{3-chloro-4-[(1-methylethyl)sulfonyl]phenyl}-4,4′-bipiperidin-1-yl)-1,1,1-trifluoro-3-oxo-2-phenylpropan-2-ol]
118 nM | 74% | 1680 nM | 54% |  |  |  | O=C(NC1CN(C(=O)c2ccc(N3CCC(C4CCN(C(=O)[C@](O)(c5ccccc5)C(F)(F)F)CC4)CC3)cc2Cl)C1)c1ccccc1 [Example E-41, N-{1-[(2-chloro-4-{1′-[(2R)-3,3,3-trifluoro-2-hydroxy-2-phenylpropanoyl]-4,4′-bipiperidin-1-yl}phenyl)carbonyl]azetidin-3-yl}benzamide]
48 nM | 104% | 1970 nM | 31% |  |  |  | CN(C)C(=O)c1ccc(N2CCC(C3CCN(C(=O)C(O)(c4ccccc4)C(F)(F)F)CC3)CC2)nc1Cl (stereo in doubt) [Example B-9, 2-chloro-N,N-dimethyl-6-{1′-[(2R)-3,3,3-trifluoro-2-hydroxy-2-phenylpropanoyl]-4,4′-bipiperidin-1-yl}pyridine-3-carboxamide]
161 nM | 106% | 1370 nM | 55% |  |  |  | CN(C)C(=O)c1ccc(N2CCC(C3CCN(C(=O)c4c(Cl)cccc4Cl)CC3)CC2)nc1Cl [Example B-10, 2-chloro-6-{1′-[(2,6-dichlorophenyl)carbonyl]-4,4′-bipiperidin-1-yl}-N,N-dimethylpyridine-3-carboxamide]
450 nM | 83% |  | 28% | NO IP |  |  | O=C(c1ccc(N2CCC(C3CCN(C(=O)[C@](O)(c4ccccc4)C(F)(F)F)CC3)CC2)cc1Cl)N1CC(F)(F)C1 [Example E-34, (2R)-3-(1′-{3-chloro-4-[(3,3-difluoroazetidin-1-yl)carbonyl]phenyl}-4,4′-bipiperidin-1-yl)-1,1,1-trifluoro-3-oxo-2-phenylpropan-2-ol]
35 nM | 93% | 1460 nM | 55% |  |  |  | CN(Cc1noc(C2CC2)n1)C(=O)c1ccc(N2CCC(C3CCN(C(=O)[C@](O)(c4ccccc4)C(F)(F)F)CC3)CC2)cc1Cl [Example E-54, 2-chloro-N-[(5-cyclopropyl-1,2,4-oxadiazol-3-yl)methyl]-N-methyl-4-{1′-[(2R)-3,3,3-trifluoro-2-hydroxy-2-phenylpropanoyl]-4,4′-bipiperidin-1-yl}benzamide]
125 nM | 72% | 1780 nM | 25% |  |  |  | O=C(c1ccc(N2CCC(C3CCN(C(=O)[C@](O)(c4ccccc4)C(F)(F)F)CC3)CC2)cc1Cl)N1CCC[C@@H]1CO [Example E-23, (2R)-3-[1′-(3-chloro-4-{[(2R)-2-(hydroxymethyl)pyrrolidin-1-yl]carbonyl}phenyl)-4,4′-bipiperidin-1-yl]-1,1,1-trifluoro-3-oxo-2-phenylpropan-2-ol]
